The conditions of data set [1]: cited from earlier work.
The subject of another data set is male Wistar rats. Kind of data set: hot plate test in rats (time to first licking of the posterior foot). The class given is in vivo, rat. The following applies: for Time to first signal activity after oral administration: morphine, codeine, ibuprofen 10 mg/kg; for Time to first signal activity after oral administration / Time to first signal activity after i.v. administration: CY5M 2.5 mg/kg; for Time to first signal activity after i.v. administration: morphine 1 mg/kg. On the procedure: The time to first licking of the posterior foot by the rat is recorded after the rat has been place on a hot plate maintained at an elevated temperature (40° C.). This procedure provides accurate data on central analgesic activities induced by various candidate drugs. Under placebo conditions, the time to first licking of the posterior foot of the test animal varies between 30 and 50 seconds. […] In the experiments reported herein, a standard hot plate test was used to assess analgesia and the time to first licking of the test animal's posterior foot was used as the triggering event for measurement of elapsed time as indicative of the pharmacological effect of the administered drug species.
Seven groups of five male Wistar rats each were randomly assigned to the following treatments: placebo, 1 mg/kg morphine (i.v.), 10 mg/kg morphine (oral), 10 mg/kg codeine (oral), 10 mg/kg ibuprofen (oral), 2.5 mg/kg CY5M (i.v.), and 2.5 mg/kg CY5M (oral). The method was pre-validated with two oral and i.v. administrations of saline placebo and the results were similar to those obtained with placebo in the experiment reported below.
On the technique in general: Thermal pain tests record how soon the animal reacts.

For the next data set, the system named is splenocytes. Kind of data set: T cell proliferation in a skin immunization model (tritiated thymidine incorporation by splenocytes). The format is in vivo, mice. Particulars: for Proliferation Index: splenocytes grown 4 days, 2 weeks after skin immunization; for proliferation index, overall comparison: comparison among the tested formulations. The method, then: Model: • 9 week old mice were immunized by application on bare skin of 100·g of Nef(66-97) peptide sequence and modifications thereof in addition to 5·g of choleric toxin and 100·g of oligodeoxynucleotide containing a CpG moiety (Immunology, 2002 104:1-14). 2 weeks later splenocytes were collected and grown over 4 days in the presence of 4 different concentrations of Nef(66-97) peptide (SEQ ID NO:2). The proliferation was measured by incorporating tritiated thymidine.

For data set [2] the following is noted: cited from earlier work. This is another data set of the same source.

For `CCOC(=O)[C@H](CCc1ccccc1)N[C@@H](C)C(=O)N1CCC[C@H]1C(=O)O` [Enalapril], the oral absorption entry in data set [1] is given as “better absorbed orally”.
With Tyr-Gly-Gly-Phe-Met [Met-Enkephalin], in the data set with male Wistar rats (preliminary study, i.v.), the “duration of transient effect after i.v. administration” value was “about 15 minutes”. Also, the “analgesic effect after oral administration” value with male Wistar rats (preliminary study, oral, 5 mg/kg dose) is recorded as “unable to demonstrate any effect”.
Turning to “D-Gal(OPiv)4-hydroxyvaleryl-aminooctanoyl-Nef(66-97) • G95ψ . . . (CH2—CH2) G96 [Pivgal]”, the “Proliferation Index” value amounted to 05 with splenocytes (Conc. of Nef peptide 0.5), 08 with splenocytes (Conc. of Nef peptide 5), 10 with splenocytes (Conc. of Nef peptide 50) and 02 with splenocytes (Conc. of Nef peptide .05).
Consider `CC(C)Cc1ccc(C(C)C(=O)O)cc1` (stereo not drawn) [Ibuprofen], for which the “Time to first signal activity after oral administration” value (“Time … after oral administration” below) is 53.2 s in the data set with male Wistar rats (oral, 0 h); 55.0 s with male Wistar rats (oral, 1 h); 70.4 s in the data set with male Wistar rats (oral, 2 h); 66.0 s with male Wistar rats (oral, 4 h); 54.0 s in the data set on male Wistar rats (oral, 6 h); 44.2 s in the data set with male Wistar rats (oral, 24 h).
As for `CN1CC[C@]23c4c5ccc(O)c4O[C@H]2[C@@H](O)C=C[C@H]3[C@H]1C5` [Morphine], the “duration of analgesic effect” value in the data set with male Wistar rats (i.v. administration) and with male Wistar rats (oral administration) was “six” each time. Moreover, the “Time to first signal activity after i.v. administration” value in the data set on male Wistar rats (i.v., 0 h) came to 51.8 s; in the data set with male Wistar rats (i.v., 1 h), 118.8 s; with male Wistar rats (i.v., 2 h) it was 86.6 s; with male Wistar rats (i.v., 4 h), 63.2 s; in the data set on male Wistar rats (i.v., 6 h), 45.6 s; in the data set with male Wistar rats (i.v., 24 h), 40.0 s. The “Time … after oral administration” value turned out to be 51.8 s with male Wistar rats (oral, 0 h); 84.8 s with male Wistar rats (oral, 1 h); 81.2 s in the data set on male Wistar rats (oral, 2 h); 58.8 s in the data set on male Wistar rats (oral, 4 h); 48.8 s in the data set on male Wistar rats (oral, 6 h); 42.0 s in the data set on male Wistar rats (oral, 24 h).
For the compound `NCCCC[C@H](N[C@@H](CCc1ccccc1)C(=O)O)C(=O)N1CCC[C@H]1C(=O)O` [Lisinopril], in data set [1], the oral bioavailability is under 25%. The “Tmax (time to maximum serum levels in vivo)” value in data set [1] (oral) is recorded as “more than seven”. For the same compound, the solubility in water entry in data set [2] was “relatively good solubility in water”.
Regarding “Cinnamoyl-aminooctanoyl-Nef(66-97) G95ψ . . . (CH2—CH2) G96 [CC8]”, the “Proliferation Index” value in the data set with splenocytes (Conc. of Nef peptide 0.5) is 22; with splenocytes (Conc. of Nef peptide 5) it was 20; in the data set on splenocytes (Conc. of Nef peptide 50), 16; with splenocytes (Conc. of Nef peptide .05), 10. In the data set on splenocytes, the “proliferation index, overall comparison” value is listed as “best proliferation index”.
In the case of `C[C@H](N[C@@H](CCc1ccccc1)C(=O)O)C(=O)N1CCC[C@H]1C(=O)O` [Enalaprilat], in data set [1], the oral absorption result was “very poorly absorbed orally”.
Take Nef(66-97)-palmitoyl lysilamide [Lipo]: the “Proliferation Index” value came to 06 in the data set on splenocytes (Conc. of Nef peptide 0.5), 08 in the data set with splenocytes (Conc. of Nef peptide 5), 07 in the data set on splenocytes (Conc. of Nef peptide 50) and 03 with splenocytes (Conc. of Nef peptide .05).
As to `COc1ccc2c3c1O[C@H]1[C@@H](O)C=C[C@H]4[C@@H](C2)N(C)CC[C@@]341` [Codeine], the “Time … after oral administration” value with male Wistar rats (oral, 0 h) is 53.2 s; in the data set on male Wistar rats (oral, 1 h) it was 51.4 s; in the data set with male Wistar rats (oral, 2 h), 64.6 s; with male Wistar rats (oral, 4 h), 57.6 s; with male Wistar rats (oral, 6 h) it was 56.2 s; in the data set on male Wistar rats (oral, 24 h), 46.4 s.
As to VGFPVTPQVPLRPMTYKAAVDLSHFLKEKGGL [Nef], the “Proliferation Index” value in the data set on splenocytes (Conc. of Nef peptide 0.5) is reported as 10; with splenocytes (Conc. of Nef peptide 5), 13; with splenocytes (Conc. of Nef peptide 50) it was 10; in the data set on splenocytes (Conc. of Nef peptide .05) it was 03.
For “Cinnamoyl-aminovaleryl-Nef(66-97) G95ψ . . . (CH2—CH2) G96 [CC5]”, the “Proliferation Index” value is 22 in the data set on splenocytes (Conc. of Nef peptide 0.5), 21 in the data set on splenocytes (Conc. of Nef peptide 5), 20 in the data set with splenocytes (Conc. of Nef peptide 50) and 11 with splenocytes (Conc. of Nef peptide .05). For the same compound, in the data set with splenocytes, the “proliferation index, overall comparison” value is on record as “best proliferation index”.
With cinnamoyl-Met-Enkephalin [CY5M], the “duration of analgesic effect” value with male Wistar rats (i.v. administration) and with male Wistar rats (oral administration) was at least 24 h throughout. The “Time to first signal activity after i.v. administration” value with male Wistar rats (i.v., 0 h) came out at 51.0 s; in the data set with male Wistar rats (i.v., 1 h), 57.0 s; in the data set with male Wistar rats (i.v., 2 h), 114.0 s; in the data set with male Wistar rats (i.v., 4 h) it was 88.2 s; with male Wistar rats (i.v., 6 h), 106.0 s; with male Wistar rats (i.v., 24 h) it was 86.6 s. Also, the “effectiveness relative to morphine by the same route (area under the dose response curve)” value in the data set on male Wistar rats (i.v., CY5M 2.5 mg/kg vs morphine 1 mg/kg) is “at least 8 times”; in the data set on male Wistar rats (oral, CY5M 2.5 mg/kg vs morphine 10 mg/kg), “at least 8 times”. Further, the “Time … after oral administration” value with male Wistar rats (oral, 0 h) was determined as 53.6 s; in the data set with male Wistar rats (oral, 1 h), 46.2 s; in the data set on male Wistar rats (oral, 2 h) it was 78.8 s; in the data set with male Wistar rats (oral, 4 h) it was 78.2 s; in the data set on male Wistar rats (oral, 6 h), 82.6 s; in the data set with male Wistar rats (oral, 24 h), 98.8 s.
As for “Cinnamoyl-Nef(66-97) G95ψ . . . (CH2—CH2) G96 [C0]”, the “Proliferation Index” value in the data set with splenocytes (Conc. of Nef peptide 0.5) worked out at 12; in the data set with splenocytes (Conc. of Nef peptide 5), 14; with splenocytes (Conc. of Nef peptide 50), 12; in the data set with splenocytes (Conc. of Nef peptide .05), 08.

The values are drawn from US8080519B2, “Compositions and methods for enhanced pharmacological activity of compositions comprising peptide drug substances” (priority 1999, dated 2011).
